Reference: patent publication US20250262167A1, “COMPOUNDS, TARGETS AND PATHWAYS FOR MACROPHAGE MODULATION” (Massachusetts Institute of Technology, priority 2020, published 2025)
Like-named read-outs stand apart in the source and are kept apart here.

Legend:
[1] = tested on: subcutaneous B16F10 tumors; test: B16F10 melanoma model in B6 mice; type: in vivo, mouse; conditions: for tumor growth: alone; for tumor growth, with TA99: combination with TA99
[2] = tested on: hMDMs differentiated into M2 by IL-4 plus IL-13; test: Reprogramming screen and dosage response on M2-like differentiated macrophages; conditions: Homo sapiens, Macrophage, 24 h, read-out: EC;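 also: human monocyte-derived macrophages held 24 h in 5 ng/mL IL-4 plus IL-13 before 24 h compound exposure, with cell shape measured from images in 384-well plates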
Experimental: Shown are comparison of Z-scores between 5 μM or 10 μM of compounds. […] Shown are comparison of Z-scores between 5 μM or 10 μM of compounds. […] EC and fitness of 21 M1-polarizing (triangle) and 19 M2-polarizing compounds (circle) were calculated by the Michaelis-Menten equation and plotted. Data were summarized from 3 independent experiments.
Human macrophages were seeded into optical 384-well plates. Sixteen hours later, medium in M1 plates were replaced by M1 differentiating medium (complete RPMI with 50 ng/mL IFNγ and 50 ng/mL TNFα) and medium in M2 plates by M2 differentiating medium (complete RPMI with 5 ng/mL IL-4 and 5 ng/mL IL-13). After 24 hrs cell differentiation, M1 plates (M1 macrophages) and M2 plates (M2 macrophages) were treated with M2-activating compounds and M1-activating compounds respectively for 24 hrs. Two independent experiments were performed with or without replacing differentiating medium right before treatment. Cell imaging and analysis were performed as indicated above.
To investigate whether the identified compounds could reprogram or reactivate macrophages after M1- or M2-like differentiation, we rescreened the hits on M1- or M2-activated macrophages. hMDMs were activated into M2-like macrophages by IL-4 plus IL-13 or M1-like macrophages by IFNγ plus TNFα. After removing the differentiating cytokines, M2-like macrophages were treated with each of the 166 M1-activating compounds and M1-like macrophages were treated with each of the 180 M2-activating compounds at a final concentration of either 5 μM and 10 μM. 24 hours later, cell images were taken and cell shapes were quantified. […] Dosage responses were carried out with 40 commercial available compounds (21 M1-activating and 19 M2-activating) on polarized macrophages.
We also rescreened the hits on differentiated macrophages in the presence of differentiating cytokines: either IL-4 plus IL-13 or IFNγ plus TNFα.

PKM2 = test: PKM enzymatic activity (colorimetric kit) in treated ImKCs; type: cell-based, mouse; conditions: parental ImKCs, 50 nM, β-arrestin2-dependent
Experimental: Data are presented as the mean±sd (n=4). […] Data are presented as the mean±sd (n=6).
FIGS. 29A-29B show comparison of DPI's effect on glycolysis in wild-type and Pkm^−/− BMDMs. […] FIGS. 29C-29D show activation of PKM2 and GAPDH enzymatic activity by DPI is inhibited by ERK1/2 inhibitor. ImKCs were treated with DMSO or DPI alone (500 nM) or DPI plus ERK1/2 inhibitor (SCH772984, […]) for 6 hrs and the enzymatic activities of PKM2 (c) and GAPDH (d) were measured by colorimetric assay kits (Biovision). Data are presented as the mean±sd (n=6).
The enzymatic activities of PKM and GAPDH were measured using the pyruvate kinase activity assay kit (Biovision, #K709) and GAPDH activity assay kit (Biovision, #K680) according to the manufacturer's protocols, respectively.

[3] = tested on: ImKCs (immortalized line of mouse Kupffer cells); test: Seahorse ECAR/OCR (glycolysis, OxPhos) in ImKCs; type: cell-based
Experimental: Shown are representative data of three independent experiments. […] Data are presented as the mean±sd (n=4).
FIGS. 21A-21I show DPI stimulates glycolysis through GPR3 and β-arrestin2. FIGS. 21A-21B show DPI-stimulated glycolysis is independent of the NOX activity. […] The mean fluorescence intensity (MFI) of 2-NBDG in cells was measured by flow cytometry and normalized to DMSO controls of wildtype BMDMs. Data are presented as the mean±sd (n=3). […] ImKCs were transfected with siRNA specific for Gpr3 or a scramble siRNA as control. […] Data are presented as the mean±sd (n=4). […] Data are presented as the mean±sd (n=12). […] Abbr2^−/− ImKC were constructed by CRISPR-Cas9-mediated gene editing. […] Data are presented as the mean±sd (n=4). […] ImKCs were transfected with Abbr2-GFP fusion gene and stimulated with DMSO, DPI (50 nM), or S1P (3 mM). The GFP signal was captured with a TIRF microscope at indicated time points. Shown are representative data of GFP signal at 0 min and 10 min, and merged signal from three independent experiments.
Specific parameters for glycolytic capacity and glycolytic reserve were calculated and summarized based on two independent experiments. […] The GFP signal was captured with a TIRF microscope at indicated time points. Shown are representative data of GFP signal at 0 min and 10 min, and the merged signal from three independent experiments.
OCR and ECAR were measured in isolated tissues or cultured ImKCs using the Seahorse XFe Extracellular Flux Analyzer (Agilent). For tissue respiration assays, 1.0 mg adipose tissue was dissected from inguinal WAT depots by using a surgical biopsy instrument (Integra Miltex Standard Biopsy Punches, Thermo Fisher) and placed into XF96 Islet Capture Microplates and pre-incubated with XF assay medium with pH value at 7.4. XF assay medium supplemented with 1 mM sodium pyruvate, 2 mM GlutaMax™-I, and 25 mM glucose. Isolated MDMs or Kupffer cells were subjected to a mitochondrial stress test by adding oligomycin (2 μM) followed by carbonyl cyanide 4-(trifluoromethoxy), phenylhydrazone (FCCP, 5 μM), and antimycin (1 μM). For glucose stress assay and ECAR measurement, XF assay medium was supplemented only with GlutaMax™-I. Tissue or cells were subjected to a glucose stress test by adding highly concentrated glucose (for tissue, 25 mM; for cells, 10 mM), followed by adding oligomycin (5 μM), FCCP (5 μM), and 2-DG (50 mM). Cells were seeded in culture dishes, and the medium was changed after 6 hours with serum-free DMEM. Cells were incubated for 12-16 hours, and the culture medium was then collected for measurement of glucose and lactate concentrations. Glucose levels were determined using a glucose (GO) assay kit (Sigma). Glucose consumption was the difference in glucose concentration when compared with DMEM. Lactate levels were determined using a lactate assay kit (Eton Bioscience).
DPI is an agonist of GPR3 and an inhibitor of […] oxidase (NOX). We first determined the requirement of NOX in DPI-stimulated glycolysis.
To determine the requirement of GPR3, we knocked down GPR3 by siRNA (siGpr3) in ImKCs.
β-arrestin2, encoded by Arrb2, has been reported to bind to GPR3 and is required for GPR3 signaling. To investigate the requirement of 0-arrestin2 in DPI-stimulated glycolysis, we constructed Arrb2^−/− ImKCs using CRISPR-Cas9 mediated gene editing (FIG. 28F).

ImKCs = conditions: 6 hours, dose-dependent
Experimental: ImKCs were treated with DPI for 6 hrs and select metabolites in the glycolytic pathway and TCA cycle were quantified by LC-MS. Data are presented as the mean±sd (n=4). P values were calculated by student t-test. * P<0.05, ** P<0.01, *** P<0.001, **** P<0.0001.
ImKCs were treated with DPI (500 nM) for 24 hrs and the select metabolites were quantified by LC-MS. Shown are representative data of two independent experiments. P values were calculated by student t-test. * P<0.05, ** P<0.01. n.s. not significant.
ImKCs were treated with DPI (#81050, Cayman) at 50 or 500 nM for 6 hrs or 24 hrs. Cells were washed once in ice-cold 0.9% NaCl and lysates were extracted in 80% methanol solution containing internal standards for LC/MS by scraping on dry ice followed by 10-minute mixing with vortex in 4° C. Following lysate extraction, debris were removed by high-speed centrifugation and supernatant was dried using speedvac. Samples were analyzed by LC/MS on QExactive Orbitrap instruments (Thermo Scientific) in Whitehead Institute metabolite profiling core facility.

[4] = tested on: BMDMs (wild-type and Pkm−/−); conditions: dose-dependent
Experimental: WT and Pkm^−/− BMDMs were not treated or treated with DPI (50 and 500 nM) for 24 hrs. The transcript levels of Pkm, Ldha, Hk2 and c-Myc were measured by real-time qPCR. Data were collected from two independent experiments with 3 biological replicates per group. Transcriptional level was normalized to β-actin first and then to DMSO control. Data are presented as the mean±sd. […] Transfected cells were not treated or treated with DPI (50 and 500 nM) for 6 hrs and luciferase activities were measured. Data are presented as the mean±sd (n=5). P values were calculated by student t-test. * P<0.05, ** P<0.01, *** P<0.001, **** P<0.0001.
To test this mechanism, we first determined if PKM2 is required for DPI-induced transcription of glycolytic genes. BMDMs were prepared from wild-type and Pkm^−/− mice, incubated with or without 50 and 500 nM DPI for 24 hours, and the transcript levels of key glycolytic genes were quantified by RT-PCR.
We also determined if c-Myc is induced by DPI in a PKM2-dependent manner. […] To determine whether DPI activates c-Myc transcriptional activity, we performed c-Myc luciferase reporter assays in the parental ImKCs and Pkm^−/− ImKCs.

[5] = KC-specific Pkm−/− mice
Experimental: FIGS. 24G-24H show DPI's effect on KC-specific Pkm^−/− mice fed with HFD. Male KC-specific Pkm^−/− mice at the age of 5 weeks were fed with HFD for a total of 8 weeks. Three weeks after HFD, half of the mice were given DPI in vehicle (2 mg/kg) and the other half were given vehicle every 5 days for a total of 6 doses. Body weights were monitored weekly (FIG. 24G). Data are presented as the mean±sd from two independent experiments with 6 mice per group. Comparison of H&E staining of liver sections after 8 weeks on HFD. Shown are representative H&E staining from one mouse per group. Arrows in FIG. 24F and FIG. 24H point to lipid droplets. Scale bar: 100 μm. P values were calculated by student t-test. * P<0.05, ** P<0.01, *** P<0.001, **** P<0.0001.
FIGS. 34A-34C show effect of DPI on Kupffer cell-specific Pkm^−/− mice on HFD. […] KC-specific Pkm^−/− mice were given HFD for a total of 8 weeks. Three weeks after HFD, half of the mice were given DPI in vehicle (2 mg/kg) and the other half were given vehicle every 5 days for a total of 6 doses. At 7 weeks plus 3 days, mice were starved overnight (12˜16 hrs) with only water. Glucose (1 mg/kg) was injected intraperitoneally and blood glucose levels were monitored at the indicated time. […] Sera from mice were collected at the end of HFD feeding and activities of AST and ALT were measured by colorimetric assay kits (Sigma). Shown are representative data from two independent experiments with 5˜6 mice per group. P values were calculated by student t-test. n.s. not significant. * P<0.05.
KC-specific Pkm^−/− mice were fed with HFD for 8 weeks starting at 5 weeks of age. Three weeks after HFD, half of the mice were given vehicle and the other half was given DPI (2 mg/kg) i.p. every 5 days.

[6] = not given; remark: listed apart in the source
Kupffer cells (KCs) = conditions: HFD mice
Experimental: Single cell suspension was prepared from mice from FIG. 24A after 8 weeks on HFD (6 mice per group), stained with anti-F4/80, anti-CD11b and anti-Gr-1. F4/80^+CD11b^+Gr1^low macrophages were purified by cell sorting followed by RNAseq. Shown are differentially expressed genes among the three groups. […] M1-type polarization is expressed as positive scores whereas M2-type polarization is expressed as negative scores.
Mouse livers were dissected and digested with Collagenase IV (Roche). Single cell suspension was stained with anti-F4/80, anti-CD11b and anti-Gr-1. F4/80^+CD11b^+Gr1^low macrophages were sorted by flow cytometry (BD Aria). RNAs were extracted with RNeasy MinElute Kit (Qiagen), converted into cDNA and sequenced using Next-Generation Sequencing (Illumina). RNA-seq data were aligned to the human genome (version hg19) and raw counts of each genes of each sample were calculated with bowtie2 2.2.3 (Langmead et al. 2009) and RSEM 1.2.15 (Li et al. 2011). Differential expression analysis was performed using the program edgeR at P<0.05 with a two-fold change (Robinson et al. 2010). The gene expression level across different samples was normalized and quantified using the function of cpm. DEGs were annotated using online functional enrichment analysis tool DAVID (Huang et al. 2007).

[7] = flow cytometry, vs vehicle or TA99
[8] = 5, 50 and 500 nM, short-term, dose-dependent

Compound: C=C(NC(=O)C(=C)NC(=O)c1csc(C2=N[C@@H]3c4csc(n4)[C@H]4NC(=O)c5csc(n5)[C@H]([C@](C)(O)[C@@H](C)O)NC(=O)[C@H]5CSC(=N5)/C(=C/C)NC(=O)[C@H]([C@@H](C)O)NC(=O)c5csc(n5)[C@]3(CC2)NC(=O)[C@H](C)NC(=O)C(=C)NC(=O)[C@H](C)NC(=O)[C@H]([C@@H](C)CC)N[C@@H]2C=Cc3c([C@H](C)O)cc(nc3[C@H]2O)C(=O)O[C@@H]4C)n1)C(N)=O [Thiostrepton]
- tumor growth ([1]; I.P., 150 or 300 mg/kg, dosage-dependent): strongly suppressed
- tumor growth, with TA99 ([1]; I.P., 150 or 300 mg/kg): additively
- expression of Tnf, Il1b, Cxcl1 and Cxcl2 in TAMs ([1]; RNA-seq, day 18, I.P. or S.C.): significantly upregulated
- macrophages and monocytes in tumors ([1]; day 18, flow cytometry, vs vehicle or TA99): elevated levels
- Arg1 in TAM [1, 7]: decreased levels
- iNOS and CD86 in TAM [1, 7]: elevated levels
- tumor growth ([1]; para-tumor S.C., 20 mg/kg): suppressed the tumor growth
- tumor growth, with TA99 ([1]; para-tumor S.C., 20 mg/kg): additive effects
- TNFα+ IFNγ+ NK cells in tumors ([1]; vs vehicle or TA99): increased number
- EC (M1 Z-score cutoff) [2]: 0.408 µM

Compound: c1ccc2c(c1)[I+]c1ccccc1-2 [Diphenyleneiodonium chloride]
- PKM2 enzymatic activity (PKM2): immediate increase
- ECAR [3, 8]: immediate increase
- OCR [3, 8]: concomitant decrease
- glycolytic capacity and reserve ([3]; 50 and 500 nM, 24 hrs): significant increase
- glycolysis and glycolytic capacity ([3]; Arrb2−/− ImKCs, 50 nM): did not stimulate any increase
- glycolysis, glycolytic capacity and glucose consumption ([3]; siGpr3 ImKCs, 50 nM): did not stimulate any increase
- glycolysis and glycolytic capacity ([3]; siGpr3 ImKCs, 500 nM, lower than in scramble siRNA ImKCs): significant increase
- glucose level (ImKCs): decreased significantly
- levels of TCA cycle intermediates (ImKCs): all decreased
- levels of glycolysis intermediates (G6P, F1,6BP, G3P, pyruvate, lactate) (ImKCs): increased significantly
- EC (M1 Z-score cutoff) [2]: 0.336 µM
- HFD-induced elevation of serum AST and ALT (HFD 8 weeks): significantly reduced
- weight gain (HFD 8 weeks, 2 mg/kg i.p. every five days, vs vehicle): significantly reduced
- glucose tolerance (HFD 8 weeks, vs vehicle): significant increase
- lipid deposition in the liver (HFD 8 weeks, vs vehicle): significantly reduced
- iWAT (after 8 weeks on HFD): significantly lower levels
- transcription of c-Myc [4]: stimulated the transcription
- iWAT [5]: significantly lower level
- HFD-induced body-weight gain and lipid droplet deposition in the livers ([5]; 2 mg/kg i.p. every 5 days): did not reduce
- glucose tolerance, serum AST and ALT levels ([5]; with or without DPI): similar
- blood glucose ([6]; 15 and 30 min after glucose injection): significantly lower levels
- blood glucose ([6]; 6 hours after DPI 2 mg/kg i.p.): significantly lower level
- expression of genes involved in glycolysis, oxidative phosphorylation and fatty acid metabolism in KCs (Kupffer cells (KCs)): upregulated
- expression of genes involved in inflammation in KCs (Kupffer cells (KCs)): significantly suppressed
- macrophage polarization index (MPI) of KCs (Kupffer cells (KCs)): reprogrammed to an intermediated phenotype
